# From patent US10738080B2, “Inhibitors of beta integrin-G protein alpha subunit binding interactions” (priority 2010, dated 2020)
# Read-outs that look alike come from different tables or passages of the source.
# Key:
# [1] = system: human platelets; settings: PAR4AP 50 μM, 250 μM peptide (150 μM also in FIG. 17G)
# Description: Washed human or mouse platelets resuspended in modified Tyrode's buffer (3×10^8/ml, 50 μl) were incubated with 10 μg/ml Oregon Green^488-conjugated fibrinogen (Molecular Probes) and 50 μM PAR4AP for 30 minutes at 22° C. as previously described^26. The reaction was diluted with 0.5 ml of PBS and analyzed by flow cytometry using FACS Caliber (BD Biosciences, San Jose, Calif.).
# [2] = system: platelets; settings: ATP secretion
# Description: (§1) Platelet aggregation assays were carried out as follows: Platelet aggregation and secretion was measured in a turbidometric platelet aggregometer (Chronolog) at 37° C. with stirring (1000 rpm). Washed platelets (3×10^8/ml) in modified Tyrode's buffer were stimulated with thrombin (Enzyme Research Laboratories). For talin knockdown platelet aggregation assay stimulated with manganese and ADP, manganese and ADP was mixed prior to experiment to achieve final concentration of 1 mM manganese and 5 μM ADP in reaction tube. Aggregation traces shown are representative of at least three independent experiments.
# [3] = system: mouse platelets; settings: 30 μM peptide
# Description: as §1
substance,measurement,setting,value
Myr-EEERA [mP5],agonist (PAR4AP)-induced fibrinogen binding to platelets (inside-out signaling),[1],no effect
same,agonist (PAR4AP)-induced fibrinogen binding to platelets (inside-out signaling),[1]; listed as Myr-P5,without affecting
same,platelet granule secretion,[2],inhibited
same,platelets aggregation induced by thrombin,[3],inhibited
